Test results as given in patent US11046673B1, “Tetrazolinone compounds and its use” (SUMITOMO CHEMICAL COMPANY, LIMITED, priority 2016, dated 2021).

System: wheat rust fungi (Puccinia recondita)
Assay: Test Example 13 / Comparative Test Example 1: wheat rust, foliar spray
Format: in vivo
Details: wheat (cv Shirogane), 12.5 ppm foliar spray, inoculated after 5 days
Description: A plastic pot was filled with soil and thereto wheat (cv; Shirogane) seeds were sown and the plants were grown in a greenhouse for 9 days. Any of the present compounds 1, 2, 3, 5, 6, 7, 8, 9, 10, 12, 13, 14, 15, 18, 19, 20, 21, 26, 27 and 28 each of which was made to a formulation according to the similar method to that of Formulation Example 6, was adjusted with water so as to be 12.5 ppm, and the adjusted solutions were sprayed to foliar parts so as to adhere adequately on the leaves of the above-mentioned wheat. After spraying the adjusted solutions, the plants were air-dried and were then cultivated at 20° C. under lighting for 5 days. The spores of wheat rust fungi (Puccinia recondita) were sprinkling-inoculated. After the inoculation, the plants were placed under a dark and humid condition at 23° C. for 1 day and were then cultivated at 20° C. under lighting for 8 days, and a lesion area was observed.
A plastic pot was filled with soils and thereto was seeded wheat (cv; Shirogane) and the plants were grown in a greenhouse for 9 days. 1-(2-{[2-methyl-4-(1-methyl-1H-pyrazol-3-yl)phenoxy]methyl}-3-methylphenyl)-4-m ethyl-4,5-dihydrotetrazole-5-one which was made to a formulation according to the similar method to that of Formulation Example 6 was adjusted with water so as to be 12.5 ppm. […]

Cc1cc(-c2ccn(C)n2)ccc1OCc1c(C)cccc1-n1nnn(C)c1=O [1-(2-{[2-methyl-4-(1-methyl-1H-pyrazol-3-yl)phenoxy]methyl}-3-methylphenyl)-4-m ethyl-4,5-dihydrotetrazole-5-one]
lesion area compared to the lesion area in untreated plants: ≥ 70%
